Here are results for 24 compounds from ChEMBL document CHEMBL3045577, “Synthesis and anti-HIV activity evaluation of novel N-arylidene-2-[1-(naphthalen-1-yl)-1H-tetrazol-5-ylthio]acetohydrazides” (Med Chem Res, 2010).

Structures are written as SMILES. Some results are limits rather than exact numbers.

Data set [1] deals with Human immunodeficiency virus 1. The data set can be described thus: Antiviral activity against Human immunodeficiency virus 1 IIIB infected human MT4 cells assessed as inhibition of virus-induced cytopathicity after 4 days by MTT assay. It counts as functional, organism-based. To be noted: MT4, 96 h. Background: Protection from cytopathic effect is a common read-out in antiviral testing.

The nature of data set [2]: Selectivity index, ratio of CC50 for human MT4 cells to EC50 for HIV-2 ROD infected in MT4 cells. It counts as toxicity, cell-based. To be noted: read-out: Ratio CC50/EC50.
Data set [3] is described as follows: Cytotoxicity against Homo sapiens (human) MT4 cells by MTT assay. The data set is classed as cell-based. For orientation: Formazan colour is commonly taken as a measure of viable cells.
The nature of data set [4]: Selectivity index, ratio of CC50 for human MT4 cells to EC50 for HIV-1 3B infected in MT4 cells. It counts as toxicity, cell-based. To be noted: read-out: Ratio CC50/EC50.
Data set [5] deals with Human immunodeficiency virus 2. Nature of the data set: Antiviral activity against Human immunodeficiency virus type 2 (ISOLATE ROD) infected human MT4 cells assessed as inhibition of virus-induced cytopathicity after 4 days by MTT assay. The following applies: Human immunodeficiency virus 2, ISOLATE ROD, MT4, 96 h. It counts as functional, organism-based.

On to `O=C(CSc1nnnn1-c1cccc2ccccc12)N/N=C/c1ccco1`, for which the half-maximal effective concentration (EC50) in data set [1] and in data set [5] was above 330 µM in each case. Besides, the selectivity ratio in data set [2] and in data set [4] was 1 each time. Also, in data set [3], the CC50 is above 330 µM.
In data set [3], `Cc1ccnc2c1NC(=O)c1cccnc1N2C1CC1` [NEVIRAPINE] returned a CC50 above 15 µM.
Take `COc1ccc(O)c(/C=N/NC(=O)CSc2nnnn2-c2cccc3ccccc23)c1`: the EC50 in data set [1] and in data set [5] was above 4.51 µM each time. Further, the selectivity ratio in data set [2] and in data set [4] was below 1 in each case. Besides, it took 4.51 µM to reach half-maximal cytotoxicity in data set [3] (CC50).
`O=C(CSc1nnnn1-c1cccc2ccccc12)N/N=C/c1ccccc1O`: the EC50 in data set [1] and in data set [5] was above 4.85 µM throughout. Besides, the selectivity ratio in data set [2] and in data set [4] was below 1 each time. Half-maximal cytotoxicity in data set [3] (CC50) was put at 4.85 µM.
Take `CC(C)Nc1cccnc1N1CCN(C(=O)c2cc3cc(NS(C)(=O)=O)ccc3[nH]2)CC1` [DELAVIRDINE]: in data set [3], the CC50 was above 3.83 µM. The selectivity ratio in data set [4] was above 12.
For `O=C(CSc1nnnn1-c1cccc2ccccc12)N/N=C/c1ccc(F)cc1`, the EC50 in data set [1] and in data set [5] was above 308 µM in each case. In addition, the selectivity ratio in data set [2] and in data set [4] was 1 throughout. In data set [3], this compound yielded a CC50 above 308 µM.
Regarding `O=C(CSc1nnnn1-c1cccc2ccccc12)N/N=C/c1ccc([N+](=O)[O-])cc1`, the EC50 in data set [1] and in data set [5] was above 261 µM in each case. Also, the selectivity ratio in data set [2] and in data set [4] was 1 in each case. This compound also returned a 50% cytotoxic concentration (CC50) in data set [3] of at least 261 µM.
As for `COc1cc(/C=N/NC(=O)CSc2nnnn2-c2cccc3ccccc23)ccc1O`, the concentration giving a half-maximal response (EC50) in data set [1] and in data set [5] was above 288 µM each time. For the same compound, the selectivity ratio in data set [2] and in data set [4] was 1 in each case. The compound further displayed a CC50 in data set [3] above 288 µM.
For `O=C(CSc1nnnn1-c1cccc2ccccc12)N/N=C/c1ccccc1F`, the EC50 in data set [1] and in data set [5] was above 118 µM in each case. For the same compound, the selectivity ratio in data set [2] and in data set [4] was 1 in each case. This compound also came in with a half-maximal cytotoxic concentration (CC50) in data set [3] of at least 118 µM.
For the compound `O=C(CSc1nnnn1-c1cccc2ccccc12)N/N=C/c1cccs1`, the 50% effective concentration (EC50) in data set [1] and in data set [5] was above 317 µM in each case. The selectivity ratio in data set [2] and in data set [4] was 1 throughout. This compound also displayed a CC50 in data set [3] above 317 µM.
`Cc1cn([C@H]2C[C@H](N=[N+]=[N-])[C@@H](CO)O2)c(=O)[nH]c1=O` [ZIDOVUDINE] had a CC50 in data set [3] above 93.5 µM. Moreover, the selectivity ratio in data set [4] is above 6190.
As for `COc1ccc(/C=N/NC(=O)CSc2nnnn2-c2cccc3ccccc23)c(OC)c1`, the EC50 in data set [1] and in data set [5] was above 28.3 µM in each case. For the same compound, the selectivity ratio in data set [2] and in data set [4] was below 1 each time. In addition, the midpoint of cytotoxicity in data set [3], the CC50, lay at 28.3 µM.
With `O=C(CSc1nnnn1-c1cccc2ccccc12)N/N=C/c1ccccc1Cl`, the EC50 in data set [1] and in data set [5] was above 69.7 µM throughout. For the same compound, the selectivity ratio in data set [2] and in data set [4] was below 1 each time. This compound gave a CC50 in data set [3] of 69.7 µM.
With `COc1ccc(/C=N/NC(=O)CSc2nnnn2-c2cccc3ccccc23)cc1`, the EC50 in data set [1] and in data set [5] was above 299 µM throughout. Also, the selectivity ratio in data set [2] and in data set [4] was 1 each time. The compound further displayed a CC50 in data set [3] above 299 µM.
Turning to `O=C(CSc1nnnn1-c1cccc2ccccc12)N/N=C/c1ccc(O)cc1`, the EC50 in data set [1] was 31.6 µM; in data set [5] it was above 309 µM. Further, the selectivity ratio in data set [2] was 1; in data set [4], above 9. For the same compound, the CC50 in data set [3] is above 309 µM.
As for `O=C(CSc1nnnn1-c1cccc2ccccc12)N/N=C/c1ccccc1`, the EC50 in data set [1] was at least 21.4 µM; in data set [5], above 229 µM. Besides, the results for the selectivity ratio in data set [2] and in data set [4] were below 1 and at most 10, respectively. In addition, in data set [3], the cytotoxic concentration (CC50) came out at 216 µM.
In turn, `O=C1Nc2ccc(Cl)cc2[C@@](C#CC2CC2)(C(F)(F)F)O1` [EFAVIRENZ] registered a CC50 in data set [3] above 6.34 µM. In addition, the selectivity ratio in data set [4] is above 1430.
On to `Cc1cccc(/C=N/NC(=O)CSc2nnnn2-c2cccc3ccccc23)c1`, for which the EC50 in data set [1] and in data set [5] was above 269 µM each time. Further, the selectivity ratio in data set [2] and in data set [4] was below 1 each time. Further, the CC50 in data set [3] was found to be 269 µM.
On to `COc1ccc(/C=N/NC(=O)CSc2nnnn2-c2cccc3ccccc23)cc1OC`, for which the EC50 in data set [1] was at least 36.3 µM; in data set [5], above 191 µM. Also, the values for the selectivity ratio in data set [2] and in data set [4] were below 1 and at most 5, respectively. Moreover, the CC50 in data set [3] turned out to be 191 µM.
On the same counts, the results for `CN(C)c1ccc(/C=N/NC(=O)CSc2nnnn2-c2cccc3ccccc23)cc1` are above 290 µM, above 290 µM, 1, 1 and above 290 µM.
`O=C(CSc1nnnn1-c1cccc2ccccc12)N/N=C/c1cccc(O)c1`: the EC50 was 29.6 µM in data set [1] and above 169 µM in data set [5]. Further, the selectivity ratio in data set [2] is below 1; in data set [4], 6. This compound gave a CC50 in data set [3] of 169 µM.
Take `O=C(CSc1nnnn1-c1cccc2ccccc12)N/N=C/c1cccc(Cl)c1`: the EC50 in data set [1] and in data set [5] was above 240 µM each time. The selectivity ratio in data set [2] and in data set [4] was below 1 throughout. In data set [3], this compound registered a CC50 of 240 µM.
`COc1cccc(/C=N/NC(=O)CSc2nnnn2-c2cccc3ccccc23)c1OC`: the EC50 in data set [1] and in data set [5] was above 192 µM throughout. Moreover, the selectivity ratio in data set [2] and in data set [4] was below 1 in each case. In addition, the CC50 in data set [3] amounted to 192 µM.
For the compound `O=C(CSc1nnnn1-c1cccc2ccccc12)N/N=C/c1ccc(Cl)cc1`, the EC50 in data set [1] and in data set [5] was above 296 µM each time. Also, the selectivity ratio in data set [2] and in data set [4] was 1 in each case. This compound registered a CC50 in data set [3] above 296 µM.

Usually EC50 stands for the concentration giving half of the maximal effect. Usually CC50 stands for the concentration at which the toxic effect on the cells reaches its halfway point.
